From patent US9676758B2, “1-heteroaryl-indoline-4-carboxamides as modulators of GPR52 useful for the treatment or prevention of disorders related thereto” (Arena Pharmaceuticals, Inc., priority 2015, dated 2017)

What follows are molecules tested against T1, recombinant GPR52 (Homo sapiens, UniProt Q9Y2T5) (assay: HTRF cAMP assay for direct cAMP measurement). Details: mean EC50; CHO-K1 or HEK293 cells stably expressing recombinant GPR52.
T1 construct: expressed in transfected cells
T1 sequence (Q9Y2T5 whole entry): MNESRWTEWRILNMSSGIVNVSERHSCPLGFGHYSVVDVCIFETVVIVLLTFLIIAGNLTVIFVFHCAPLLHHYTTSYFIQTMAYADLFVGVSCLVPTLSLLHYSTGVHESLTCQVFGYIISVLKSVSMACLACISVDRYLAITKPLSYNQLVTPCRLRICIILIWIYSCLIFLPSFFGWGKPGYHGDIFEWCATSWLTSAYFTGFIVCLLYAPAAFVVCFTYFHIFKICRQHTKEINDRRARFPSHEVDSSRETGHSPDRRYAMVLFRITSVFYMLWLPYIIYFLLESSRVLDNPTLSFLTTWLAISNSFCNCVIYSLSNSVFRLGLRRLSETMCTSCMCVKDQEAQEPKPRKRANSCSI
Format: cell-based
Experimental: HTRF cAMP assays were performed using commercially available assay kits according to the manufacturer's instructions (cAMP Dynamic 2 Assay Kit; #62AM4PEJ, Cisbio Bioassays, Bedford, Mass.). CHO-K1 or HEK293 cells stably expressing recombinant GPR52 were harvested and resuspended in assay buffer (PBS containing 0.5 mM IBMX and 0.1% BSA) at a density of 1.2×10^6 cells per mL. […] Test compounds were solubilized and serially diluted in DMSO using 5-fold dilutions to generate 10-point dose response curves. These serially diluted samples were then further diluted in PBS to achieve a 2× stock. The diluted compounds were transferred to triplicate assay plates (5 μL per well to achieve the 1× final assay concentration). A positive control was included in each assay run. After one-hour incubation at room temperature, 5 μL of cAMP D2 reagent diluted in lysis buffer was added to each well, followed by 5 μL of cryptate reagent. Plates were then incubated at room temperature for one hour prior to reading. Time-resolved fluorescence measurements were collected on an HTRF-capable plate reader (e.g., EnVision® (PerkinElmer, Waltham, Mass.) or PHERAstar (BMG LABTECH, Cary, N.C.)). Counts from the plate reader were fit to the cAMP standard curve included on each plate to determine the amount of cAMP in each test well. Dose-response curves were generated from the cAMP data and analyzed using a nonlinear least squares curve-fitting program to obtain EC50 values.
An EC50 of 6.76 nM was found for `CN(C)CC(O)CNC(=O)c1cccc2c1CCN2c1cc(Cc2cc(F)c(F)c(F)c2)ccn1` (stereo not drawn) [Compound 158, N-(3-(Dimethylamino)-2-hydroxypropyl)-1-(4-(3,4,5-trifluorobenzyl)pyridin-2-yl)indoline-4-carboxamide] in this work.
An EC50 of 12.9 nM was found for `O=C(NCCO)c1cccc2c1CCN2c1ccnc(Cc2cc(F)cc(Cl)c2)c1` [Compound 187, 1-(2-(3-Chloro-5-fluorobenzyl)pyridin-4-yl)-N-(2-hydroxyethyl)indoline-4-carboxamide] in this work.
An EC50 of 37 nM was found for `O=C(NC[C@H](O)c1cccnc1)c1cccc2c1CCN2c1cc(Cc2cc(F)c(F)c(F)c2)ccn1` [Compound 148, (R)-N-(2-Hydroxy-2-(pyridin-3-yl)ethyl)-1-(4-(3,4,5-trifluorobenzyl)pyridin-2-yl)indoline-4-carboxamide] in this work.
An EC50 of 223 nM was found for `CNC(=O)c1cc(Cc2ccnc(N3CCc4c(C(N)=O)cccc43)c2)ccc1F` [Compound 59, 1-(4-(4-Fluoro-3-(methylcarbamoyl)benzyl)pyridin-2-yl)indoline-4-carboxamide] in this work.
An EC50 of 16 nM was found for `CC(=O)c1ccc(Cc2ccnc(N3CCc4c(C(N)=O)cccc43)c2)cc1` [Compound 55, 1-(4-(4-Acetylbenzyl)pyridin-2-yl)indoline-4-carboxamide] in this work.
An EC50 of 5.21 nM was found for `O=C(N[C@H]1CCOC1)c1cccc2c1CCN2c1cncc(Cc2cccc(C(F)(F)F)c2)c1` [Compound 7, (S)-N-(Tetrahydrofuran-3-yl)-1-(5-(3-(trifluoromethyl)benzyl)pyridin-3-yl)indoline-4-carboxamide] in this work.
An EC50 of 106 nM was found for `O=C(N[C@H]1CCOC1)c1cccc2c1CCN2c1cccc(Cc2cccc(C(F)(F)F)c2)n1` [Compound 2, (S)-N-(Tetrahydrofuran-3-yl)-1-(6-(3-(trifluoromethyl)benzyl)pyridin-2-yl)indoline-4-carboxamide] in this work.
An EC50 of 31.6 nM was found for `COC[C@@H](O)CNC(=O)c1cccc2c1CCN2c1cc(Cc2cc(F)cc(Cl)c2)ccn1` [Compound 168, (S)-1-(4-(3-Chloro-5-fluorobenzyl)pyridin-2-yl)-N-(2-hydroxy-3-methoxypropyl)indoline-4-carboxamide] in this work.
An EC50 of 428 nM was found for `NC(=O)c1cccc2c1CCN2c1cc(Sc2cccc(C(F)(F)F)c2)ccn1` [Compound 30, 1-(4-(3-(Trifluoromethyl)phenylthio)pyridin-2-yl)indoline-4-carboxamide] in this work.
An EC50 of 23.6 nM was found for `Cn1cc(NC(=O)c2cccc3c2CCN3c2cc(Cc3cc(F)c(F)c(F)c3)ccn2)cn1` [Compound 117, N-(1-Methyl-1H-pyrazol-4-yl)-1-(4-(3,4,5-trifluorobenzyl)pyridin-2-yl)indoline-4-carboxamide] in this work.
An EC50 of 55.9 nM was found for `O=C(NCC1(CO)COC1)c1c(F)ccc2c1CCN2c1cc(Cc2cc(F)c(F)c(F)c2)ccn1` [Compound 155, 5-Fluoro-N-((3-(hydroxymethyl)oxetan-3-yl)methyl)-1-(4-(3,4,5-trifluorobenzyl)pyridin-2-yl)indoline-4-carboxamide] in this work.
An EC50 of 18 nM was found for `CNC(=O)CCNC(=O)c1cccc2c1CCN2c1cc(Cc2cc(F)c(F)c(F)c2)ccn1` [Compound 172] in this work.
An EC50 of 11.7 nM was found for `N#Cc1cc(Cc2ccnc(N3CCc4c(C(N)=O)cccc43)c2)ccc1F` [Compound 60, 1-(4-(3-Cyano-4-fluorobenzyl)pyridin-2-yl)indoline-4-carboxamide] in this work.
An EC50 of 61.6 nM was found for `NC(=O)c1cccc2c1CCN2c1cc(Cc2cnc(F)c(F)c2)ccn1` [Compound 49, 1-(4-((5,6-Difluoropyridin-3-yl)methyl)pyridin-2-yl)indoline-4-carboxamide] in this work.
An EC50 of 292 nM was found for `O=C(NC[C@H](O)C(F)(F)F)c1cccc2c1CCN2c1cc(Cc2cc(F)c(F)c(F)c2)ccn1` [Compound 160, (S)-N-(3,3,3-Trifluoro-2-hydroxypropyl)-1-(4-(3,4,5-trifluorobenzyl)pyridin-2-yl)indoline-4-carboxamide] in this work.
An EC50 of 5.54 nM was found for `COc1ccc(Cc2ccnc(N3CCc4c(C(=O)NCCF)cccc43)c2)cc1F` [Compound 203, 1-(4-(3-fluoro-4-methoxybenzyl)pyridin-2-yl)-N-(2-fluoroethyl)indoline-4-carboxamide] in this work.
An EC50 of 21.9 nM was found for `COC[C@@H](O)CNC(=O)c1cccc2c1CCN2c1ccnc(Cc2cc(F)c(F)c(F)c2)c1` [Compound 189, (S)-N-(2-Hydroxy-3-methoxypropyl)-1-(2-(3,4,5-trifluorobenzyl)pyridin-4-yl)indoline-4-carboxamide] in this work.
An EC50 of 36.5 nM was found for `NC(=O)c1cccc2c1CCN2c1cc(Cc2ccc(F)c(CO)c2)ccn1` [Compound 63, 1-(4-(4-Fluoro-3-(hydroxymethyl)benzyl)pyridin-2-yl)indoline-4-carboxamide] in this work.
An EC50 of 80.4 nM was found for `Cc1cc(Cc2cccc(C(F)(F)F)c2)cc(N2CCc3c(C(N)=O)cccc32)n1` [Compound 17, 1-(6-Methyl-4-(3-(trifluoromethyl)benzyl)pyridin-2-yl)indoline-4-carboxamide] in this work.
An EC50 of 601 nM was found for `O=C(NCCO)c1cccc2c1CCN2c1cncc(Cc2cccc(C(F)(F)F)c2)n1` [Compound 38, N-(2-Hydroxyethyl)-1-(6-(3-(trifluoromethyl)benzyl)pyrazin-2-yl)indoline-4-carboxamide] in this work.
An EC50 of 10.7 nM was found for `CC(=O)c1cc(Cc2ccnc(N3CCc4c(C(=O)NCCO)cccc43)c2)ccc1F` [Compound 77, 1-(4-(3-Acetyl-4-fluorobenzyl)pyridin-2-yl)-N-(2-hydroxyethyl)indoline-4-carboxamide] in this work.
An EC50 of 21.4 nM was found for `CC(=O)Oc1cccc(Cc2ccnc(N3CCc4c(C(N)=O)cccc43)c2)c1` [Compound 102, 3-((2-(4-Carbamoylindolin-1-yl)pyridin-4-yl)methyl)phenyl acetate] in this work.
An EC50 of 142 nM was found for `O=C(N[C@@H]1CCOC1=O)c1cccc2c1CCN2c1cc(Cc2cc(F)c(F)c(F)c2)ccn1` [Compound 135, (R)-N-(2-Oxotetrahydrofuran-3-yl)-1-(4-(3,4,5-trifluorobenzyl)pyridin-2-yl)indoline-4-carboxamide] in this work.
An EC50 of 9.74 nM was found for `O=C(Nc1cnn(CCO)c1)c1cccc2c1CCN2c1cc(Cc2cc(F)c(F)c(F)c2)ccn1` [Compound 118, N-(1-(2-Hydroxyethyl)-1H-pyrazol-4-yl)-1-(4-(3,4,5-trifluorobenzyl)pyridin-2-yl)indoline-4-carboxamide] in this work.
An EC50 of 61 nM was found for `NC(=O)c1cccc2c1CCN2c1cc(Cc2cnc3ccccc3c2)ccn1` [Compound 111, 1-(4-(Quinolin-3-ylmethyl)pyridin-2-yl)indoline-4-carboxamide] in this work.
An EC50 of 12.3 nM was found for `O=C(N[C@H]1CCOC1)c1cccc2c1CCN2c1cc(Cc2cccc(C(F)(F)F)c2)ccn1` [Compound 4, (S)-N-(Tetrahydrofuran-3-yl)-1-(4-(3-(trifluoromethyl)benzyl)pyridin-2-yl)indoline-4-carboxamide] in this work.
An EC50 of 10.9 nM was found for `COc1ccc(Cc2ccnc(N3CCc4c3ccc(F)c4C(=O)NCCNC(C)=O)c2)cc1F` [Compound 164, N-(2-Acetamidoethyl)-5-fluoro-1-(4-(3-fluoro-4-methoxybenzyl)pyridin-2-yl)indoline-4-carboxamide] in this work.
An EC50 of 38.7 nM was found for `NC(=O)c1cccc2c1CCN2c1cc(Cc2cc3ccccc3o2)ccn1` [Compound 119, 1-(4-(Benzofuran-2-ylmethyl)pyridin-2-yl)indoline-4-carboxamide] in this work.
An EC50 of 8.56 nM was found for `COc1ccc(Cc2ccnc(N3CCc4c(C(=O)NCCOCCO)cccc43)c2)cc1F` [Compound 205, 1-(4-(3-fluoro-4-methoxybenzyl)pyridin-2-yl)-N-(2-(2-hydroxyethoxy)ethyl)indoline-4-carboxamide] in this work.
An EC50 of 17.4 nM was found for `Cc1cc(Cc2ccnc(N3CCc4c(C(N)=O)cccc43)c2)cnc1F` [Compound 50, 1-(4-((6-Fluoro-5-methylpyridin-3-yl)methyl)pyridin-2-yl)indoline-4-carboxamide] in this work.
An EC50 of 35.9 nM was found for `NC(=O)c1cccc2c1CCN2c1cc(Cc2ccc(O)c(F)c2)ccn1` [Compound 97, 1-(4-(3-Fluoro-4-hydroxybenzyl)pyridin-2-yl)indoline-4-carboxamide] in this work.
An EC50 of 307 nM was found for `COCC(COC)NC(=O)c1cccc2c1CCN2c1cc(Cc2cc(F)c(F)c(F)c2)ccn1` [Compound 131, N-(1,3-Dimethoxypropan-2-yl)-1-(4-(3,4,5-trifluorobenzyl)pyridin-2-yl)indoline-4-carboxamide] in this work.
An EC50 of 212 nM was found for `NC(=O)c1cccc2c1CCN2c1cc(Cc2ccc3c(c2)OCCCO3)ccn1` [Compound 96, 1-(4-((3,4-Dihydro-2H-benzo[b][1,4]dioxepin-7-yl)methyl)pyridin-2-yl)indoline-4-carboxamide] in this work.
An EC50 of 98.4 nM was found for `O=C(NCCO)c1cccc2c1CCN2c1cc(Oc2cc(F)cc(C(F)(F)F)c2)ccn1` [Compound 23, 1-(4-(3-Fluoro-5-(trifluoromethyl)phenoxy)pyridin-2-yl)-N-(2-hydroxyethyl)indoline-4-carboxamide] in this work.
An EC50 of 36.3 nM was found for `N#CCCNC(=O)c1cccc2c1CCN2c1cc(Cc2cccc(C(F)(F)F)c2)ccn1` [Compound 20, N-(2-Cyanoethyl)-1-(4-(3-(trifluoromethyl)benzyl)pyridin-2-yl)indoline-4-carboxamide] in this work.
An EC50 of 3750 nM was found for `CN(C)Cc1cccc(Cc2ccnc(N3CCc4c(C(N)=O)cccc43)c2)c1` [Compound 81, 1-(4-(3-((Dimethylamino)methyl)benzyl)pyridin-2-yl)indoline-4-carboxamide] in this work.
